Reference: article PMC12285253, “Insights into genetic determinants of volatile fatty acid catabolism in Cupriavidus necator H16” (Applied and Environmental Microbiology, 2025)

Experiments:
H16_B1148 = target: T1, H16_B1148 (Cupriavidus necator, UniProt Q0K235); assay: coupled NADH assay of ATP consumption (myokinase, pyruvate kinase, lactate dehydrogenase); assay type: biochemical; settings: 2 mM substrate, 1 mM CoA, 2.1 mM ATP, 5 mM MgCl2, pH 7.5
T1 construct: N-terminal hexahistidine tag, E. coli BL21(DE3) delta-patZ, Ni-NTA and SEC
T1 sequence (Q0K235 1-544): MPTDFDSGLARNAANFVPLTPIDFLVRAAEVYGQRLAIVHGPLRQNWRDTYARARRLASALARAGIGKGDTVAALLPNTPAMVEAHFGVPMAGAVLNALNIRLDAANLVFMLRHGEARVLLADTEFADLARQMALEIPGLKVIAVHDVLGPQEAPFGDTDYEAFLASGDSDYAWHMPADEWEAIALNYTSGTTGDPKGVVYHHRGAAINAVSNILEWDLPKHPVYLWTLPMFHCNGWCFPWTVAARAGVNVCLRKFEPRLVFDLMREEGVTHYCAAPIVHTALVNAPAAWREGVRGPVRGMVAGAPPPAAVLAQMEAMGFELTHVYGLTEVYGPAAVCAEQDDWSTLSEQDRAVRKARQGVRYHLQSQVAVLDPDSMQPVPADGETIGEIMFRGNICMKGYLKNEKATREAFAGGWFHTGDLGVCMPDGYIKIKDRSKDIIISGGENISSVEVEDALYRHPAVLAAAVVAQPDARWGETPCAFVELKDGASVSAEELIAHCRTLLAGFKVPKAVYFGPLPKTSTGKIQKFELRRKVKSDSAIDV

H16_B1335 = target: T2, H16_B1335 (Cupriavidus necator, UniProt Q0K1J9); assay: as above; assay type: biochemical; settings: 2 mM substrate, 1 mM CoA, 2.1 mM ATP, 5 mM MgCl2, pH 7.5
T2 sequence (Q0K1J9 1-562): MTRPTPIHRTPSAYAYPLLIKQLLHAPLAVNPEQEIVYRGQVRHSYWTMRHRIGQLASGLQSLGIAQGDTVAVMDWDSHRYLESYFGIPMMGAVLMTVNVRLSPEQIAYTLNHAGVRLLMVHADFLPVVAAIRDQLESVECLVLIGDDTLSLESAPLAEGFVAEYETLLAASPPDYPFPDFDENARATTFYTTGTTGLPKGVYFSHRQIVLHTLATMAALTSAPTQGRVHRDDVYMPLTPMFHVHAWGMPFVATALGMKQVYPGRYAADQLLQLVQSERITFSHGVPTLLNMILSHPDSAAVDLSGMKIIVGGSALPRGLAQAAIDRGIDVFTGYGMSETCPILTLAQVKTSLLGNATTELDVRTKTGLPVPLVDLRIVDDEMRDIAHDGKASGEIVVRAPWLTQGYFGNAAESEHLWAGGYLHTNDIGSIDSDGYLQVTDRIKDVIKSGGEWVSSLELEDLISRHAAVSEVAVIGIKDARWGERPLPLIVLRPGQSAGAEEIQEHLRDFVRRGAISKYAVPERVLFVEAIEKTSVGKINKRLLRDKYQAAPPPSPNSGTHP

SMILES	relative activity (H16_B1148)	relative activity (H16_B1335)
CCC(=O)O [C3, propionate]	The relative activity of H16_B1148 skewed toward shorter chain lengths	
CCCCC(=O)O [C5, valerate]		our in vitro assay results demonstrating that H16_B1335 is also active on valerate
CCCCCC(=O)O [C6, hexanoate]		the relative activity of H16_B1335 skewed toward longer chain lengths
